The test system of experiment [1] is 229E human corona virus (hCoV). The experiment in a line: 229E live virus assay (CPE, ATPlite readout, MRC-5 cells). Format: cell-based, hCoV-229E. As to conditions: Human coronavirus 229E, MRC5, 144 h, read-out: 229E EC50. On the technique in general: ATP-based viability assays read luminescence as a measure of living cells.
Another experiment concerns the target SARS-CoV-2 3CL-protease (Severe acute respiratory syndrome coronavirus 2, UniProt P0DTD1). The experiment in a line: SARS-CoV-2 3C-like (3CL) protease fluorescence assay (FRET). It is filed as biochemical. The conditions noted are these: recombinant SARS-CoV-2 3CL-protease 10 nM, 30 min preincubation at RT, duplicate; read-out: FRET IC50.
The mark [2] stands for this setting: MRC-5 cells, MOI 0.05, 6 days at 34° C., ATPlite, duplicate.

Like-named read-outs stand apart in the source and are kept apart here.

Turning to `CC(C)C[C@@H](C(=O)Nc1cc(F)cc(F)c1)C(=O)N1C[C@]2(C[C@H]1C#N)C(=O)Nc1ccccc12` (single isomer, unassigned) [Example 11], the concentration giving a half-maximal response (EC50) in experiment [1] (setting [2]) is more than 1000 nM. Further, the IC50 at SARS-CoV-2 3CL-protease was more than 1000 nM.

With `CC(C)C[C@H](C(=O)Nc1cc(F)cc(F)c1)C(=O)N1C[C@]2(C[C@H]1C#N)C(=O)Nc1ccccc12` (single isomer, unassigned) [Example 12], the 50% effective concentration (EC50) in experiment [1] (setting [2]) was more than 1000 nM. Besides, at SARS-CoV-2 3CL-protease, the IC50 is more than 1000 nM.

With `CC(C)CC(C(=O)Nc1ccccc1)C(=O)N1C[C@]2(C[C@H]1C#N)C(=O)Nc1ccccc12` (stereo partly shown) [Example 1], the concentration for a half-maximal effect (EC50) in experiment [1] is more than 1000 nM. Besides, at SARS-CoV-2 3CL-protease, the half-inhibitory concentration (IC50) is more than 1000 nM.

For the molecule `CC(C)CC(C(=O)N(C)c1ccccc1)C(=O)N1C[C@]2(C[C@H]1C#N)C(=O)Nc1ccccc12` (stereo partly shown) [Example 2], the EC50 in experiment [1] (setting [2]) was more than 1000 nM. Also, on SARS-CoV-2 3CL-protease, the IC50 was more than 1000 nM.

Take `CC(C)CC(C(=O)NC1CC1)C(=O)N1C[C@]2(C[C@H]1C#N)C(=O)Nc1ccccc12` (stereo partly shown) [Example 3]: in experiment [1] (setting [2]), the EC50 fell in the range of 100 to 1000 nM. For the same molecule, on SARS-CoV-2 3CL-protease, the IC50 was more than 1000 nM.

Consider `CC(C)CC(C(=O)Nc1cc2ccccc2[nH]1)C(=O)N1C[C@]2(C[C@H]1C#N)C(=O)Nc1ccccc12` (stereo partly shown) [Example 4], for which, in experiment [1] (setting [2]), the half-maximal effective concentration (EC50) is more than 1000 nM. Also, on SARS-CoV-2 3CL-protease, the IC50 is more than 1000 nM.

For `CC(C)CC(C(=O)Nc1ccc2ccccc2c1)C(=O)N1C[C@]2(C[C@H]1C#N)C(=O)Nc1ccccc12` (stereo partly shown) [Example 5], the half-maximal effective concentration (EC50) in experiment [1] (setting [2]) fell in the range of 100 to 1000 nM. For the same molecule, the IC50 at SARS-CoV-2 3CL-protease is more than 1000 nM.

With `CC(C)CC(C(=O)Nc1cc(F)ccc1F)C(=O)N1C[C@]2(C[C@H]1C#N)C(=O)Nc1ccccc12` (stereo partly shown) [Example 6], the EC50 in experiment [1] (setting [2]) was in the range of 100 to 1000 nM. For the same molecule, the IC50 on SARS-CoV-2 3CL-protease was more than 1000 nM.

For the molecule `CC(C)CC(C(=O)Nc1cc(F)cc(F)c1)C(=O)N1C[C@]2(C[C@H]1C#N)C(=O)Nc1ccccc12` (stereo partly shown) [Example 7], in experiment [1] (setting [2]), the EC50 was 100 to 1000 nM. In addition, the IC50 at SARS-CoV-2 3CL-protease was more than 1000 nM.

For the molecule `CC(C)CC(C(=O)Nc1ccc(F)cc1F)C(=O)N1C[C@]2(C[C@H]1C#N)C(=O)Nc1ccccc12` (stereo partly shown) [Example 8], the EC50 in experiment [1] (setting [2]) was more than 1000 nM. The half-maximal inhibitory concentration (IC50) at SARS-CoV-2 3CL-protease is more than 1000 nM.

For `CC(C)CC(C(=O)Nc1ccc(F)cc1Cl)C(=O)N1C[C@]2(C[C@H]1C#N)C(=O)Nc1ccccc12` (stereo partly shown) [Example 9], in experiment [1] (setting [2]), the EC50 was more than 1000 nM. Besides, the IC50 at SARS-CoV-2 3CL-protease was more than 1000 nM.

On to `CC(C)CC(C(=O)Nc1c(F)cccc1Cl)C(=O)N1C[C@]2(C[C@H]1C#N)C(=O)Nc1ccccc12` (stereo partly shown) [Example 10], for which, in experiment [1] (setting [2]), the EC50 is more than 1000 nM. Also, the IC50 at SARS-CoV-2 3CL-protease was more than 1000 nM.

Consider `CC(C)CC(C(=O)Nc1cccc(-c2ccccc2)c1)C(=O)N1C[C@]2(C[C@H]1C#N)C(=O)Nc1ccccc12` (stereo partly shown) [Example 13], for which, in experiment [1] (setting [2]), the EC50 is more than 1000 nM. For the same molecule, the IC50 at SARS-CoV-2 3CL-protease was more than 1000 nM.

With `CC(C)CC(C(=O)Nc1ccc(-c2ccccc2)cc1)C(=O)N1C[C@]2(C[C@H]1C#N)C(=O)Nc1ccccc12` (stereo partly shown) [Example 14], the EC50 in experiment [1] (setting [2]) was more than 1000 nM. In addition, the IC50 on SARS-CoV-2 3CL-protease was more than 1000 nM.

On to `CC(C(=O)Nc1ccccc1)C(=O)N1C[C@]2(C[C@H]1C#N)C(=O)Nc1ccccc12` (stereo partly shown) [Example 15], for which the EC50 in experiment [1] (setting [2]) is more than 1000 nM. For the same molecule, at SARS-CoV-2 3CL-protease, the IC50 is more than 1000 nM.

`CC(C(=O)N(C)c1ccccc1)C(=O)N1C[C@]2(C[C@H]1C#N)C(=O)Nc1ccccc12` (stereo partly shown) [Example 16]: in experiment [1] (setting [2]), the EC50 lay in the range of 100 to 1000 nM. For the same molecule, the IC50 on SARS-CoV-2 3CL-protease was more than 1000 nM.

As to `CC(C(=O)Nc1cc(F)cc(F)c1)C(=O)N1C[C@]2(C[C@H]1C#N)C(=O)Nc1ccccc12` (stereo partly shown) [Example 17], in experiment [1] (setting [2]), the concentration giving a half-maximal response (EC50) is more than 1000 nM. Also, the IC50 at SARS-CoV-2 3CL-protease was more than 1000 nM.

For `CC(C)CC(F)(C(=O)Nc1ccccc1)C(=O)N1C[C@]2(C[C@H]1C#N)C(=O)Nc1ccccc12` (stereo partly shown) [Example 18], the EC50 in experiment [1] (setting [2]) is more than 1000 nM. Moreover, the IC50 on SARS-CoV-2 3CL-protease is more than 1000 nM.

As to `CC(C)CC(F)(C(=O)N(C)c1ccccc1)C(=O)N1C[C@]2(C[C@H]1C#N)C(=O)Nc1ccccc12` (stereo partly shown) [Example 19], in experiment [1] (setting [2]), the EC50 was more than 1000 nM. The IC50 at SARS-CoV-2 3CL-protease is more than 1000 nM.

Take `CC(C)CC(F)(C(=O)Nc1cc(F)cc(F)c1)C(=O)N1C[C@]2(C[C@H]1C#N)C(=O)Nc1ccccc12` (stereo partly shown) [Example 20]: the 50% effective concentration (EC50) in experiment [1] (setting [2]) was more than 1000 nM. The IC50 on SARS-CoV-2 3CL-protease was more than 1000 nM.

As for `N#C[C@@H]1C[C@@]2(CN1C(=O)C(Cc1ccccc1)C(=O)Nc1ccccc1)C(=O)Nc1ccccc12` (stereo partly shown) [Example 21], in experiment [1] (setting [2]), the EC50 is more than 1000 nM. The IC50 on SARS-CoV-2 3CL-protease fell in the range of 100 to 1000 nM.

For `CN(C(=O)C(Cc1ccccc1)C(=O)N1C[C@]2(C[C@H]1C#N)C(=O)Nc1ccccc12)c1ccccc1` (stereo partly shown) [Example 22], in experiment [1] (setting [2]), the EC50 is more than 1000 nM. Also, at SARS-CoV-2 3CL-protease, the half-inhibitory concentration (IC50) is more than 1000 nM.

Take `N#C[C@@H]1C[C@@]2(CN1C(=O)C(Cc1ccccc1)C(=O)Nc1cc(F)cc(F)c1)C(=O)Nc1ccccc12` (stereo partly shown) [Example 23]: the EC50 in experiment [1] (setting [2]) was more than 1000 nM. The IC50 on SARS-CoV-2 3CL-protease lay within 100 to 1000 nM.

Consider `N#C[C@@H]1C[C@@]2(CN1C(=O)C(Cc1ccccc1)C(=O)Nc1ccc3ccccc3c1)C(=O)Nc1ccccc12` (stereo partly shown) [Example 24], for which, in experiment [1] (setting [2]), the EC50 is more than 1000 nM. On SARS-CoV-2 3CL-protease, the concentration for half-maximal inhibition (IC50) lay within 100 to 1000 nM.

Regarding `N#C[C@@H]1C[C@@]2(CN1C(=O)[C@@H](Cc1ccccc1)C(=O)Nc1cc(F)cc(F)c1)C(=O)Nc1ccccc12` [Example 25], the half-maximal effective concentration (EC50) in experiment [1] (setting [2]) is more than 1000 nM. For the same molecule, the IC50 at SARS-CoV-2 3CL-protease was 100 to 1000 nM.

Take `N#C[C@@H]1C[C@@]2(CN1C(=O)[C@H](Cc1ccccc1)C(=O)Nc1cc(F)cc(F)c1)C(=O)Nc1ccccc12` [Example 26]: the EC50 in experiment [1] (setting [2]) is more than 1000 nM. For the same molecule, on SARS-CoV-2 3CL-protease, the IC50 is more than 1000 nM.

As a reminder, the EC50 is the concentration giving half of the maximal effect. For orientation: IC50 means the midpoint of a concentration-inhibition curve.

Source of the values: patent publication US20230159546A1, “NOVEL SPIROPYRROLIDINE DERIVED ANTIVIRAL AGENTS” (Enanta Pharmaceuticals, Inc., priority 2021, published 2023).
